Experimental data from US12052991B2, “Substituted pyridinyloxybenzenes and salts thereof and use thereof as herbicidal agents” (Bayer Aktiengesellschaft, priority 2018, dated 2024).

Assays:
Type in all cases: in vivo
[1] = test system: Digitaria sanguinalis (DIGSA); assay: Herbicidal post-emergence action (Table B10); conditions: visual rating about 3 weeks after treatment, 100% = plants have died, 0% = like control plants
Experimental: (§1) Seeds of mono- and dicotyledonous weed plants were placed in plastic pots in sandy loam soil (doubly sown with in each case one species of mono- or dicotyledonous weed plants per pot), covered with soil and cultivated in a greenhouse under controlled growth conditions. 2 to 3 weeks after sowing, the test plants were treated at the one-leaf stage. The compounds of the invention, formulated in the form of wettable powders (WP) or as emulsion concentrates (EC), were applied onto the green parts of the plants as aqueous suspension or emulsion with addition of 0.5% additive at a water application rate of 600 liters per hectare (converted). After the test plants had been kept in the greenhouse under optimum growth conditions for about 3 weeks, the activity of the preparations was rated visually in comparison to untreated controls. For example, 100% activity=the plants have died, 0% activity=like control plants. Tables B1 to B12 below show the effects of selected compounds of the general formula (I) according to Table 1 on various harmful plants and an application rate corresponding to 1280 or 320 g/ha, which were obtained by the experimental procedure mentioned above.

Veronica persica (VERPE) [2] = assay: Herbicidal pre-emergence action, test C (Table C12); conditions: visual scoring vs untreated controls
How it was run: (§2)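 Application rates of 1280 or 320 g/ha were delivered as WP or EC formulations in water with 0.5% additive, 600 L/ha, onto soil covering freshly sown seeds in sandy loam. Pots stayed under good greenhouse growth conditions, and efficacy was rated as visual percent after about 3 weeks.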

Setaria viridis (SETVI) = assay: Herbicidal pre-emergence action, test C (Table C4); conditions: visual scoring after about 3 weeks, 100% = plants have died, 0% = like control plants
How it was run: as §2

[3] = test system: Amaranthus retroflexus (AMARE); assay: Herbicidal post-emergence action (Table B6); conditions: dosage 1280 g/ha; visual rating about 3 weeks after treatment; 100% = plants have died, 0% = like control plants
How it was run: (§3)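 Activity was scored visually against untreated plants roughly 3 weeks after treatment, 0% meaning like control and 100% plant death. Application was post-emergence onto green parts at the one-leaf stage, as aqueous suspension/emulsion with 0.5% additive, 600 l/ha, delivering 1280 or 320 g/ha to greenhouse plants in sandy loam.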

[4] = test system: Amaranthus retroflexus (AMARE); assay: Herbicidal pre-emergence action, test C (Table C6); conditions: visual scoring after about 3 weeks, 100% = plants have died, 0% = like control plants
How it was run: as §2

[5] = test system: Alopecurus myosuroides (ALOMY); assay: Herbicidal post-emergence action (Table B9); conditions: rated visually after about 3 weeks, 100% = plants have died, 0% = like control plants
Experimental: as §1

[6] = test system: Matricaria inodora (MATIN); assay: Herbicidal pre-emergence action, test C (Table C7); conditions: visual scoring after about 3 weeks, 100% = plants have died, 0% = like control plants
How it was run: as §2

Veronica persica (VERPE) [7] = assay: Herbicidal post-emergence action (Table B12); conditions: visual rating about 3 weeks after treatment, 100% = plants have died, 0% = like control plants
How it was run: as §3

Stellaria media (STEME) [8] = assay: Herbicidal post-emergence action (Table B8); conditions: visual rating about 3 weeks after treatment, 100% = plants have died, 0% = like control plants
How it was run: as §3

[9] = test system: Echinochloa crus-galli (ECHCG); assay: Herbicidal pre-emergence action, test C (Table C1); conditions: dosage 1280 g/ha; visual scoring after about 3 weeks; 100% = plants have died, 0% = like control plants
Excerpt: (§4) Seeds of mono- and dicotyledonous weed plants were placed in plastic pots in sandy loam soil (doubly sown with one species each of mono- or dicotyledonous weed plants per pot) and covered with soil. The compounds of the invention, formulated in the form of wettable powders (WP) or as emulsion concentrates (EC), were then applied onto the surface of the covering soil as aqueous suspension or emulsion with addition of 0.5% additive at a water application rate of 600 liters per hectare (converted). After the treatment, the pots were placed in a greenhouse and kept under good growth conditions for the test plants. After about 3 weeks, the effect of the preparations was scored visually in comparison with untreated controls as percentages. For example, 100% activity=the plants have died, 0% activity=like control plants. Tables C1 to C12 below show the effects of selected compounds of the general formula (I) according to Table 1 on various harmful plants and an application rate corresponding to 1280 or 320 g/ha, which were obtained by the experimental procedure mentioned above.

Poa annua (POAAN) [10] = assay: Herbicidal pre-emergence action, test C (Table C3); conditions: visual scoring after about 3 weeks, 100% = plants have died, 0% = like control plants
How it was run: as §2

[11] = test system: harmful plants ABUTH, AMARE, ECHCG, LOLRI, MATIN, POAAN, SETVI, STEME, ALOMY, DIGSA, KCHSC and VERPE; assay: Herbicidal pre-emergence action (test C), summary of Tables C1-C12; conditions: application rate of 1280 or 320 g of active ingredient per hectare; summary in words
How it was run: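 Visual % damage versus untreated plants (0% = like control, 100% = died) was scored after about 3 weeks in the greenhouse. Before emergence, seeds sown in sandy loam got a soil-surface spray of compound as WP or EC plus 0.5% additive, using 600 L/ha water at rates of 1280 or 320 g/ha.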

Bassia scoparia (KCHSC) = assay: Herbicidal post-emergence action (Table B11); conditions: dosage 1280 g/ha; visual rating about 3 weeks after treatment; 100% = plants have died, 0% = like control plants
How it was run: as §3

Poa annua (POAAN) [12] = assay: Herbicidal post-emergence action (Table B3); conditions: rated visually after about 3 weeks, 100% = plants have died, 0% = like control plants
How it was run: as §3

[13] = test system: Abutilon theophrasti (ABUTH); assay: Herbicidal pre-emergence action, test C (Table C5); conditions: visual scoring after about 3 weeks, 100% = plants have died, 0% = like control plants
How it was run: as §2

[14] = test system: Alopecurus myosuroides (ALOMY); assay: Herbicidal pre-emergence action, test C (Table C9); conditions: visual scoring after about 3 weeks, 100% = plants have died, 0% = like control plants
Excerpt: as §4

[15] = test system: Abutilon theophrasti (ABUTH); assay: Herbicidal post-emergence action (Table B5); conditions: rated visually after about 3 weeks, 100% = plants have died, 0% = like control plants
How it was run: as §3

Stellaria media (STEME) [16] = assay: Herbicidal pre-emergence action, test C (Table C8); conditions: visual scoring after about 3 weeks, 100% = plants have died, 0% = like control plants
How it was run: as §2

[17] = test system: harmful plants ABUTH, AMARE, ECHCG, LOLRI, MATIN, POAAN, SETVI, STEME, ALOMY, DIGSA, KCHSC and VERPE; assay: Herbicidal post-emergence action, summary of Tables B1-B12; conditions: application rate of 1280 or 320 g of active ingredient per hectare; summary in words
How it was run: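 Activity scored by eye roughly 3 weeks post-treatment against untreated plants, from 0% (no effect) to 100% (plants dead). Application rates were 1280 or 320 g/ha, as aqueous WP/EC spray plus 0.5% additive at 600 L/ha, onto one-leaf-stage weeds grown 2–3 weeks in sandy loam.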

Lolium rigidum (LOLRI) = assay: Herbicidal pre-emergence action, test C (Table C2); conditions: dosage 1280 g/ha; visual scoring after about 3 weeks; 100% = plants have died, 0% = like control plants
Excerpt: as §4

[18] = test system: Digitaria sanguinalis (DIGSA); assay: Herbicidal pre-emergence action, test C (Table C10); conditions: visual scoring after about 3 weeks, 100% = plants have died, 0% = like control plants
How it was run: as §2

[19] = test system: Echinochloa crus-galli (ECHCG); assay: Herbicidal post-emergence action (Table B1); conditions: 1280 g/ha; rated visually after about 3 weeks; 100% = plants have died, 0% = like control plants
Experimental: as §1

Cc1cccc(Oc2ncc(Cl)cc2F)c1-c1cc(C(F)F)on1 [Example 1-10]
Post-emergence action against Digitaria sanguinalis (DIGSA) ([1]; dosage 320 g/ha): 100% | Post-emergence action against Digitaria sanguinalis (DIGSA) ([1]; dosage 1280 g/ha): 100% | Pre-emergence action against Veronica persica (VERPE) (Veronica persica (VERPE) [2]; dosage 320 g/ha): 100% | Pre-emergence action against Veronica persica (VERPE) (Veronica persica (VERPE) [2]; dosage 1280 g/ha): 100% | Pre-emergence action against Setaria viridis (SETVI) (Setaria viridis (SETVI); dosage 320 g/ha): 100% | Pre-emergence action against Setaria viridis (SETVI) (Setaria viridis (SETVI); dosage 1280 g/ha): 100% | Post-emergence action against Amaranthus retroflexus (AMARE) [3]: 100% | Pre-emergence action against Amaranthus retroflexus (AMARE) ([4]; dosage 320 g/ha): 100% | Pre-emergence action against Amaranthus retroflexus (AMARE) ([4]; dosage 1280 g/ha): 100% | Post-emergence action against Alopecurus myosuroides (ALOMY) ([5]; 320 g/ha): 100% | Post-emergence action against Alopecurus myosuroides (ALOMY) ([5]; 1280 g/ha): 100% | Pre-emergence action against Matricaria inodora (MATIN) ([6]; dosage 320 g/ha): 100% | Pre-emergence action against Matricaria inodora (MATIN) ([6]; dosage 1280 g/ha): 100% | Post-emergence action against Veronica persica (VERPE) (Veronica persica (VERPE) [7]; dosage 320 g/ha): 100% | Post-emergence action against Veronica persica (VERPE) (Veronica persica (VERPE) [7]; dosage 1280 g/ha): 100% | Post-emergence action against Stellaria media (STEME) (Stellaria media (STEME) [8]; dosage 320 g/ha): 100% | Post-emergence action against Stellaria media (STEME) (Stellaria media (STEME) [8]; dosage 1280 g/ha): 100% | Pre-emergence action against Echinochloa crus-galli (ECHCG) [9]: 90% | Pre-emergence action against Poa annua (POAAN) (Poa annua (POAAN) [10]; dosage 320 g/ha): 100% | Pre-emergence action against Poa annua (POAAN) (Poa annua (POAAN) [10]; dosage 1280 g/ha): 100% | herbicidal activity against the harmful plants of Tables C1-C12 in pre-emergence treatment [11]: very good herbicidal activity | Post-emergence action against Bassia scoparia (KCHSC) (Bassia scoparia (KCHSC)): 100% | Post-emergence action against Poa annua (POAAN) (Poa annua (POAAN) [12]; 320 g/ha): 100% | Post-emergence action against Poa annua (POAAN) (Poa annua (POAAN) [12]; 1280 g/ha): 100% | Pre-emergence action against Abutilon theophrasti (ABUTH) ([13]; dosage 320 g/ha): 100% | Pre-emergence action against Abutilon theophrasti (ABUTH) ([13]; dosage 1280 g/ha): 100% | Pre-emergence action against Alopecurus myosuroides (ALOMY) ([14]; dosage 320 g/ha): 100% | Pre-emergence action against Alopecurus myosuroides (ALOMY) ([14]; dosage 1280 g/ha): 100% | Post-emergence action against Abutilon theophrasti (ABUTH) ([15]; 320 g/ha): 90% | Post-emergence action against Abutilon theophrasti (ABUTH) ([15]; 1280 g/ha): 100% | Pre-emergence action against Stellaria media (STEME) (Stellaria media (STEME) [16]; dosage 320 g/ha): 100% | Pre-emergence action against Stellaria media (STEME) (Stellaria media (STEME) [16]; dosage 1280 g/ha): 100% | herbicidal activity against the harmful plants of Tables B1-B12 in post-emergence treatment [17]: very good herbicidal activity | Pre-emergence action against Lolium rigidum (LOLRI) (Lolium rigidum (LOLRI)): 90% | Pre-emergence action against Digitaria sanguinalis (DIGSA) ([18]; dosage 320 g/ha): 100% | Pre-emergence action against Digitaria sanguinalis (DIGSA) ([18]; dosage 1280 g/ha): 100% | Post-emergence action against Echinochloa crus-galli (ECHCG) [19]: 100%
